Results on 17 molecules are retold here after patent US12357603B2, “Acyl sulfonamides for treating cancer” (Bayer Aktiengesellschaft, priority 2019, dated 2025).

Assay [1] addresses Recombinant human His-tagged Kat6a protein (amino acids 194-810) (Homo sapiens (Human), UniProt Q92794). As to the kind of experiment: Kat6a activity assay (TR-FRET, acetylation of biotinylated Histone-H4-derived peptide). The assay is classed as biochemical. Conditions: 60 mins at 22° C., read-out: KAT6A-DPF/HAT domain IC50 [mol/l] (arithmetic mean). The text has this:
Kat6a inhibitory activities of the compounds described in the present invention were quantified using a Fluorescence Resonance Energy Transfer (TR-FRET) assay which measures acetylation of a synthetic, biotinylated Histone-H4-derived peptide by the enzyme.
Recombinant human His-tagged Kat6a protein (amino acids 194-810), was purified in-house from Baculovirus-infected insect cells (Sf9). Histone H4 peptide (amino acids 1-24, […]-VLRD-K(Btn)-amide), which was used as substrate, was synthesized by Biosyntan GmbH, Berlin, Germany. Acetyl Coenzyme A was purchased from Sigma-Aldrich (#A-2056).
Kat6a was incubated for 60 mins at 22° C. in the presence of different concentrations of test substances (0 μM, and within the range 0.01-20 μM) in assay buffer [25 mM Tris/HCl pH 8, 1 mM EGTA, 2.5 mM Glutathion, 0.02% Chicken Albumin, 0.05% Pluronic F127, 25 mM NaCl, 220 nM H4 peptide and 600 nM Acetyl Coenzym A].
The reaction was stopped by addition of Detection Solution (25 mM HEPES pH 7.5, 0.1% BSA, 22 nM SAXL665 (Cisbio #610SAXLE), 100 μM Anacardic Acid (Enzo #ALX-270-381), 1 nM Anti-Histone H4 (ACETYL K8) Antibody (ABCAM #AB15823) and 0.5 nM Anti-Rabbit IgG Eu (Perkin Elmer #AD0083).
The fluorescence emission at 620 nm and 665 nm after excitation at 330-350 nm was measured in a TR-FRET measuring instrument, for instance a Rubystar or a Pherastar (both from BMG Lab Technologies, Offenburg, Germany) or a Viewlux (Perkin-Elmer). The ratio of the emission at 665 nm and at […] was used as indicator of the amount of acetylated peptide.
The resulting data (ratio) were normalized, taking 0% inhibition as the mean value of control measurements where all reagents were included. In this case 50 nl DMSO were used instead of compounds. […] IC50 values were determined by regression analysis based on a 4 parameter equation (minimum, maximum, ICM, Hill; Y=Max+(Min−Max)/(1+(X/ICso) Hill) using the Screener Software (Genedata).
Table 5 depicts the IC50 values of selected examples in biochemical KAT6A and KAT6B3 assays.
In general terms: TR-FRET usually uses a lanthanide donor and a delayed reading to cut background.

Assay [2] relates to ESR1 transcription (luciferase signal in MVLN cells). As to the kind of experiment: Repression of ESR1 transcription, luciferase reporter in MVLN cells. Conditions: Homo sapiens, MVLN, inhibition of luciferase signal in MVLN cells; arithmetic mean. The assay is classed as cell-based. The text has this: Repression of ESR1 Transcription Upon Treatment of Cells with Compounds
KAT6A controls transcription of the ESR1 gene in breast cancer cells. Compound treatment that interferes with this mechanism was quantified using MVLN cells. These cells constitutively express the ER and are stably transfected with the luciferase (LUC) reporter gene and the corresponding hormone responsive element derived from the 5′-flanking region of the Xenopus Vitellogenin A2 gene (Pons et al., 1990, Demirpense et al., 1993, Joyeux et al., 1993). The repressive effect on ERα transcription activity of a test chemical is directly related to the luciferase measured in the lysate of treated MVLN cells.
Each sample was prepared as duplicate and rim wells were excluded. For luciferase signal determination 100 μl of a 1:1 mixture of Steadylite plus (Perkin Elmer; 6016759) and assay medium was added after 24 h for 15 minutes and measured in Victor X3 (Perkin Elmer). To exclude any effects caused by cell loss during the treatment, cell density was determined using Alamar Blue (Invitrogen; DAL1100). Prior to the luciferase measurement 10 μl Alamar Blue were added to each well and the plates were incubated for 2 h in the incubator. Then fluorescence was measured with Victor X3 (Perkin Elmer) at 530 nm/590 nm.
(Reporter assays use an easily measured gene product as a stand-in for the process of interest.)

The subject of the next assay is ZR-75-1 cells. In words: Proliferation assay ZR-75-1 (Alamar Blue, 144 h). The assay is classed as cell-based. Conditions: Homo sapiens, ZR-75-1, 144 h, arithmetic mean, read-out: ZR75-1 proliferation assay, EC50 [M] (arithmetic mean). The text has this: (§1) Proliferation Assays for Compound Characterization
(§2) For compound characterization cell survival assays were routinely run in two cell lines. ZR-75-1 is a breast carcinoma cell line containing a focal KAT6A amplification and high KAT6A protein expression. Proliferation of this cell line is inhibited upon treatment with KAT6A inhibitors. As a negative control cell line MDA-MB-436 were used. These cells carry a […] deletion of the KAT6A gene, have a low KAT6A protein expression and are not growth inhibited upon treatment with KAT6A inhibitors.
(§3) For measurements cell lines were plated at the below indicated concentration per […] in 96-well plates in a humidified incubator at 37° C. and 5% CO2.
ZR-75-1 (ATCC, CRL-1500; breast carcinoma); 3000 cells per well; culture medium: RPMI 1640 (Biochrom #FG 1215) medium containing 2.5% FBS (Biochrom #S0615).
(§4) 24 hours later, cells were treated with compounds (stock solution, 10 mM in DMSO) using the HP D300 Digital Dispenser in a concentration range of 2.0×10E-5 M to 2.0×10E-9 M in a single-dot curve with 9 dilutions and a DMSO concentration of 0.2%. Each sample was prepared as triplicate and rim wells were excluded. Plates were incubated at 37° C. and 5% CO2 for 144 h. Cell viability was measured by adding 10 μL of Alamar Blue Reagent (Invitrogen #DAL 1100) and plates were incubated for 2 h at 37° C. and 5% CO2. Fluorescence was measured at 590 nm wavelength with a Tecan Spark or Victor X3 MTP-Reader (PerkinElmer).
(The colour change of resazurin is a common sign of viable cells or microbes.)

For a further assay, the system named is MDA-MB-436 cells. In words: Proliferation assay MDA-MB-436, negative control cell line (Alamar Blue, 144 h). Conditions: Homo sapiens, MDA-MB-436, 144 h, arithmetic mean. The assay is classed as cell-based.
Description: as §1, §2, §3
MDA-MB-436 (CLS, 300278; breast adenocarcinoma); 3000 cells per well; culture medium: DMEM/Ham's F12 (Biochrom #FG 4815) medium containing 2.5% FBS (Biochrom #S0615).
as §4

Recombinant human His-tagged Kat6a protein (amino acids 194-810), sequence (Q92794 194-810): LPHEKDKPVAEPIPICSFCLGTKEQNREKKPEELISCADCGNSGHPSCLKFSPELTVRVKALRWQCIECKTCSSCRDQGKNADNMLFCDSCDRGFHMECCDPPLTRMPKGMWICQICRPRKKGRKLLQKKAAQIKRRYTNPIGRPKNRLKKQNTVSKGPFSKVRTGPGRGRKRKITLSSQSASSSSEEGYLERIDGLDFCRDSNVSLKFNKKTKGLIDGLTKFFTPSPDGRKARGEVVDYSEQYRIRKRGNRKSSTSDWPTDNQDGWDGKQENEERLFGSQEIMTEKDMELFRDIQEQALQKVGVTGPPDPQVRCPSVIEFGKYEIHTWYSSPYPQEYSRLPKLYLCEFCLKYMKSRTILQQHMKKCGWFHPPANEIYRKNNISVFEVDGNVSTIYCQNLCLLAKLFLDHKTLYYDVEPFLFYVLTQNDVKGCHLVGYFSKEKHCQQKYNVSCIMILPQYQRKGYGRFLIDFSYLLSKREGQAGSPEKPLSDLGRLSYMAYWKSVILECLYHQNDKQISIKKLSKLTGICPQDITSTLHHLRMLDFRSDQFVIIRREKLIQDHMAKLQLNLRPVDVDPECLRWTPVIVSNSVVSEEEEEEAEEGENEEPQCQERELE

As to `CC1CCCN1c1ccc2cc(C(=O)NS(=O)(=O)c3ccccc3-c3ccccc3)oc2c1` (racemic) [Example 44, N-([1,1′-Biphenyl]-2-sulfonyl)-6-[2-methylpyrrolidin-1-yl]-1-benzofuran-2-carboxamide (rac)], the values for the IC50 in assay [1] and in assay [2] were 3170 nM and over 20 µM, respectively. The results for the EC50 in the assay with ZR-75-1 cells and in the assay with MDA-MB-436 cells were over 2e-05 M and over 20 µM, respectively.

As for `CC(Oc1ccccc1S(=O)(=O)NC(=O)c1cc2ccc(N(C)C)cc2o1)C(F)(F)F` (racemic) [Example 135, 6-(Dimethylamino)-N-(2-[-1,1,1-trifluoropropan-2-yl)oxy]benzene-1-sulfonyl)-1-benzofuran-2-carboxamide (rac)], the figures for the IC50 in assay [1] and in assay [2] were 57.9 nM and 0.0686 µM, respectively. In addition, the results for the EC50 in the assay on ZR-75-1 cells and in the assay on MDA-MB-436 cells were 1.46e-07 M and over 20 µM, respectively.

The molecule `CCN(C)c1ccc2cc(C(=O)NS(=O)(=O)c3ccc(Cl)cc3Cl)oc2c1` [Example 3, N-(2,4-Dichlorophenyl)sulfonyl-6-[ethyl(methyl)amino]benzofuran-2-carboxamide] had an IC50 in assay [2] of 4.28 µM. Further, the EC50 was 2e-05 M in the assay with ZR-75-1 cells and over 20 µM with MDA-MB-436 cells.

In assay [2], `CN(c1ccccc1)c1ccc2cc(C(=O)NS(=O)(=O)c3ccc(Cl)cc3Cl)oc2c1` [Example 9, N-(2,4-Dichlorophenyl)sulfonyl-6-(N-methylanilino)benzofuran-2-carboxamide] registered an IC50 of over 20 µM. Also, the figures for the EC50 in the assay on ZR-75-1 cells and with MDA-MB-436 cells were over 2e-05 M and over 20 µM, respectively.

For the molecule `CCCN(C)c1ccc2cc(C(=O)NS(=O)(=O)c3ccccc3-c3ccccc3)oc2c1` [Example 37, N-([1,1′-Biphenyl]-2-sulfonyl)-6-[methyl(propyl)amino]-1-benzofuran-2-carboxamide], the IC50 in assay [2] is 14 µM. Besides, the EC50 is over 2e-05 M with ZR-75-1 cells and over 20 µM in the assay on MDA-MB-436 cells.

Regarding `COCCN(C)c1ccc2cc(C(=O)NS(=O)(=O)c3ccccc3-c3ccccc3)oc2c1` [Example 39, N-([1,1′-Biphenyl]-2-sulfonyl)-6-[(2-methoxyethyl)(methyl)amino]-1-benzofuran-2-carboxamide], the IC50 in assay [2] is 0.1 µM. Further, the figures for the EC50 in the assay with ZR-75-1 cells and in the assay on MDA-MB-436 cells were 3.41e-08 M and over 20 µM, respectively.

In assay [2], `CN(c1ccc2cc(C(=O)NS(=O)(=O)c3ccccc3-c3ccccc3)oc2c1)C1CCCC1` [Example 46, N-([1,1′-Biphenyl]-2-sulfonyl)-6-[cyclopentyl(methyl)amino]-1-benzofuran-2-carboxamide] registered an IC50 of over 20 µM. Besides, the EC50 in the assay on ZR-75-1 cells was over 2e-05 M; in the assay on MDA-MB-436 cells, over 20 µM.

Take `CN(C)c1ccc2cc(C(=O)NS(=O)(=O)c3ccccc3-c3ccc(CO)cc3)oc2c1` [Example 51, 6-(Dimethylamino)-N-[4′-(hydroxymethyl)[1,1′-biphenyl]-2-sulfonyl]-1-benzofuran-2-carboxamide]: the EC50 with ZR-75-1 cells was 1.01e-07 M; with MDA-MB-436 cells, over 20 µM.

Consider `CCCc1ccccc1S(=O)(=O)NC(=O)c1cc2ccc(N(C)C)cc2o1` [Example 52, 6-(Dimethylamino)-N-(2-propylbenzene-1-sulfonyl)-1-benzofuran-2-carboxamide], for which the EC50 with ZR-75-1 cells was 1.94e-07 M; in the assay with MDA-MB-436 cells, over 20 µM.

As for `COc1cc(C#N)ccc1S(=O)(=O)NC(=O)c1cc2ccc(N(C)C)cc2o1` [Example 53, N-(4-Cyano-2-methoxybenzene-1-sulfonyl)-6-(dimethylamino)-1-benzofuran-2-carboxamide], the IC50 in assay [1] worked out at 440 nM. The figures for the EC50 in the assay with ZR-75-1 cells and in the assay on MDA-MB-436 cells were 2.64e-07 M and over 20 µM, respectively.

In assay [2], `O=C(NS(=O)(=O)c1ccccc1-c1ccccc1)c1cc2ccc(N3CCCC3=O)cc2o1` [Example 62, N-([1,1′-Biphenyl]-2-sulfonyl)-6-(2-oxopyrrolidin-1-yl)-1-benzofuran-2-carboxamide] came in with an IC50 of 3.07 µM. In addition, the EC50 in the assay with ZR-75-1 cells came out at 1.09e-06 M; with MDA-MB-436 cells, 11.4 µM.

Turning to `CCc1ccc2nc(C)c(S(=O)(=O)NC(=O)c3cc4ccc(N(C)C)cc4o3)n2n1` [Example 94, 6-(Dimethylamino)-N-(6-ethyl-2-methylimidazo[1,2-b]pyridazine-3-sulfonyl)-1-benzofuran-2-carboxamide], the IC50 was 287 nM in assay [1] and 0.46 µM in assay [2]. Moreover, the EC50 in the assay with MDA-MB-436 cells is over 20 µM.

In assay [2], `CN(C)c1ccc2cc(C(=O)NS(=O)(=O)c3c(Cl)cccc3Cl)oc2c1` [Example 98, N-(2,6-Dichlorobenzene-1-sulfonyl)-(dimethylamino)-1-benzofuran-2-carboxamide] displayed an IC50 of 0.603 µM. For the same molecule, the EC50 is 8.17e-07 M with ZR-75-1 cells and over 20 µM with MDA-MB-436 cells.

Turning to `CN(C)c1ccc2cc(C(=O)NS(=O)(=O)Cc3ccccn3)oc2c1` [Example 106, 6-(Dimethylamino)-N-[(pyridin-2-yl)methanesulfonyl]-1-benzofuran-2-carboxamide], the IC50 in assay [1] was 3200 nM; in assay [2] it was over 20 µM. In addition, the EC50 with MDA-MB-436 cells is over 20 µM.

For the molecule `CN(C)c1c(Br)cc2cc(C(=O)NS(=O)(=O)c3ccccc3-c3ccccc3)oc2c1F` [Example 206, N-([1,1′-Biphenyl]-2-sulfonyl)-5-bromo-6-(dimethylamino)-7-fluoro-1-benzofuran-2-carboxamide], in assay [2], the IC50 was found to be 9.5 µM. Further, the EC50 is over 2e-05 M in the assay on ZR-75-1 cells and over 20 µM with MDA-MB-436 cells.

In assay [2], `CC(C)Oc1ccccc1S(=O)(=O)NC(=O)c1cc2cc(Br)c(N(C)C)cc2o1` [Example 208, 5-Bromo-6-(dimethylamino)-N-{2-[(propan-2-yl)oxy]benzene-1-sulfonyl}-1-benzofuran-2-carboxamide] came in with an IC50 of 14.6 µM. Further, the EC50 is 1.83e-05 M in the assay with ZR-75-1 cells and over 20 µM in the assay on MDA-MB-436 cells.

With `CCOc1ccc(Br)cc1S(=O)(=O)NC(=O)c1cc2ccc(N(C)CCOC)cc2o1` [Example 213, N-(5-Bromo-2-ethoxybenzene-1-sulfonyl)-6-[(2-methoxyethyl)(methyl)amino]-1-benzofuran-2-carboxamide], in assay [2], the IC50 came to 9.88 µM. In addition, the EC50 in the assay with ZR-75-1 cells was 8.48e-06 M; in the assay on MDA-MB-436 cells, over 20 µM.
